# Source: ChEMBL document CHEMBL3352043, “Discovery of small-molecule inhibitors selectively targeting the DNA-binding domain of the human androgen receptor” (J Med Chem, 2014)
# Activity calls are given as the source filed them. The rule behind the calls is not given here.
# Experiments:
# Androgen receptor [1] = target: T1, Androgen receptor (Homo sapiens, UniProt P10275); experiment: Inhibition of androgen receptor transcriptional activity in human LNCaP cells after 3 days by eGFP assay; type: cell-based
# T1 sequence (P10275 whole entry): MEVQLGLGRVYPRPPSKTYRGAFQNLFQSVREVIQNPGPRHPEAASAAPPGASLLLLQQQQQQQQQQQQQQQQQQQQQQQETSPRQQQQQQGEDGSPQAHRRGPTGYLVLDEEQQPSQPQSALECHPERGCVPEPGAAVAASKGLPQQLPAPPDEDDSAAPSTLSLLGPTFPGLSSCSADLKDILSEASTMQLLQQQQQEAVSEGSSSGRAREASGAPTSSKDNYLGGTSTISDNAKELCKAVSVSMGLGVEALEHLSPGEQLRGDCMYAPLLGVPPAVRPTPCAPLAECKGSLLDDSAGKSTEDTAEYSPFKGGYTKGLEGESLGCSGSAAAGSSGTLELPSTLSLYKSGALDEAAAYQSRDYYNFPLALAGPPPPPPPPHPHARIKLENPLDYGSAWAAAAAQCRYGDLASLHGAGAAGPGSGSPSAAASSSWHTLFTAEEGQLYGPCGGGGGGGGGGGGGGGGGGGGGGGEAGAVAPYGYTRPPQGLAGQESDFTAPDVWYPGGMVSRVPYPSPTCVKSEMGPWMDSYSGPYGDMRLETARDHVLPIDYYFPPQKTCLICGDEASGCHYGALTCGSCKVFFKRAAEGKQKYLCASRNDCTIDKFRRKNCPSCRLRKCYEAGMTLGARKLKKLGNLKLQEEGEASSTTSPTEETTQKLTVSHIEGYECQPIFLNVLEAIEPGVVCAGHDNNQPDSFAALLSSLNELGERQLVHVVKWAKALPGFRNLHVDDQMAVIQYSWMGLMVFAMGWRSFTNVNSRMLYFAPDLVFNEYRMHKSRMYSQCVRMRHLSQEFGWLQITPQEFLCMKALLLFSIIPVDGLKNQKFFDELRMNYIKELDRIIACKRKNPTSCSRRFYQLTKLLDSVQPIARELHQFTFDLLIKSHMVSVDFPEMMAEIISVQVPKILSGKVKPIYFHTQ
# Androgen receptor [2] = target: T1, Androgen receptor; experiment: Inhibition of androgen receptor in human LNCaP cells assessed as inhibition of prostate-specific antigen secretion into media after 3 days; type: cell-based
# [3] = Stability of the compound in RPMI plus 5% charcoal stripped serum media after 1 hr by MS analysis; type: physicochemical
# LNCaP = experiment: Growth inhibition of AR-dependent human LNCAP cells at 0.001 to 3 uM after 3 days by MTS assay; type: functional, cell-based
# [4] = Growth inhibition of AR-negative human PC3 cells after 3 days by MTS assay; type: cell-based; settings: pc-3, 72 h
IC50 (Androgen receptor [1]),IC50 (Androgen receptor [2]),Stability [3],Compound,growth inhibition (GI) (LNCaP),Activity [4]
1270 nM,–,–,Fc1ccc(-c2csc(-c3ccncc3)n2)cc1,–,–
180 nM,250 nM,–,COc1c(-c2csc(N3CCOCC3)n2)ccc(F)c1F,–,–
270 nM,150 nM,–,Oc1c(F)cccc1-c1csc(N2CCOCC2)n1,–,–
2940 nM,–,–,c1cc(-c2csc(N3CCOCC3)n2)ccn1,–,–
3560 nM,–,–,CS(=O)(=O)c1c(F)cccc1-c1csc(N2CCOCC2)n1,–,–
1660 nM,1320 nM,–,Clc1ccc(-c2csc(N3CCOCC3)n2)c(Cl)c1,–,–
300 nM,230 nM,–,COc1cc(F)ccc1-c1csc(N2CCOCC2)n1,–,–
650 nM,410 nM,–,Fc1ccc(-c2csc(N3CCOCC3)n2)cc1,–,–
9840 nM,–,–,Oc1ccc(-c2ccc3ccccc3n2)cc1,–,–
1730 nM,1810 nM,Stable,Ic1ncn(-c2csc(N3CCOCC3)n2)c1I,–,–
5040 nM,–,–,OCc1sc(N2CCOCC2)nc1-c1ccccc1,–,–
1450 nM,1280 nM,–,Clc1c(Br)ncn1-c1csc(N2CCOCC2)n1,–,–
260 nM,220 nM,–,c1cc(-c2csc(N3CCOCC3)n2)cs1,–,–
9160 nM,10600 nM,–,Nc1nc(-c2ccc3ccccc3c2)cs1,–,–
2610 nM,4020 nM,–,Clc1ncn(-c2csc(N3CCOCC3)n2)c1I,–,–
1380 nM,2030 nM,–,Nc1ccccc1-c1csc(N2CCOCC2)n1,–,–
2580 nM,–,–,c1ccc(-c2csc(N3CCOCC3)n2)nc1,–,–
330 nM,440 nM,–,Clc1ncn(-c2csc(N3CCOCC3)n2)c1Br,–,–
5050 nM,6460 nM,–,Oc1ccc(-c2nc(-c3c[nH]c4ccccc34)cs2)cc1,–,–
520 nM,510 nM,–,c1ccc(-c2ccc(N3CCOCC3)s2)cc1,–,–
1460 nM,–,–,Cc1sc(N2CCOCC2)nc1-c1ccccc1,–,–

# Continued, compound first:
Compound,IC50 (Androgen receptor [1]),IC50 (Androgen receptor [2]),Stability [3],growth inhibition (GI) (LNCaP),Activity [4]
Cc1ccc(C)c(-c2csc(N3CCOCC3)n2)c1,620 nM,520 nM,–,–,–
c1ccc(-c2csc(N3CCCCC3)n2)cc1,1030 nM,690 nM,–,–,–
Clc1ncn(-c2csc(N3CCOCC3)n2)c1Cl,680 nM,570 nM,Stable,–,–
Fc1ccc(-c2csc(N3CCSCC3)n2)cc1,1590 nM,–,–,–,–
Oc1cc(F)ccc1-c1csc(N2CCOCC2)n1,1190 nM,810 nM,–,–,–
Cc1scc(-c2csc(N3CCOCC3)n2)c1C,250 nM,430 nM,–,–,–
c1ccc(-c2csc(N3CCSCC3)n2)cc1,620 nM,–,–,–,–
Cc1ncn(-c2csc(N3CCOCC3)n2)c1C,3560 nM,2420 nM,–,–,–
FC(F)(F)[C@H]1CN(c2nc(-c3ccccc3)cs2)CCO1,1650 nM,160 nM,–,–,–
c1ccc2nc(-c3ccncc3)ccc2c1,4200 nM,2260 nM,–,–,–
Clc1ccc(-c2csc(N3CCOCC3)n2)cc1Cl,3320 nM,2960 nM,–,–,–
c1ccc(-c2cc(N3CCOCC3)cs2)cc1,1240 nM,840 nM,–,–,–
Cc1cc(/C=C/c2ccc3cc(N(C)C)ccc3[n+]2C)c(C)n1-c1ccccc1,–,–,–,inactive,–
Brc1cn(-c2csc(N3CCOCC3)n2)cn1,2800 nM,1740 nM,–,–,–
Oc1c(-c2csc(N3CCOCC3)n2)ccc(F)c1F,800 nM,700 nM,–,–,–
CNc1nc(-c2ccc3ccccc3c2)cs1,3170 nM,3910 nM,–,–,–
FC(F)(F)c1cccc(-c2csc(N3CCOCC3)n2)c1,610 nM,580 nM,–,–,–
CCc1sc(N2CCOCC2)nc1-c1ccccc1,5800 nM,8430 nM,–,–,–
COc1c(F)cc(O)cc1-c1csc(N2CCOCC2)n1,3020 nM,–,–,–,–
c1ccc(-c2csc(-c3ccncc3)n2)cc1,1200 nM,630 nM,–,–,–
N#Cc1ccc(-c2ccc(N3CCOCC3)s2)cc1,1440 nM,890 nM,–,–,–
Clc1cn(-c2csc(N3CCOCC3)n2)cn1,960 nM,720 nM,–,–,–
Cc1cc(C=Cc2ccc3cc(N(C)C)ccc3[n+]2C)c(C)n1-c1ccccc1.O=C([O-])c1cc2ccccc2c(Cc2c(O)c(C(=O)O)cc3ccccc23)c1O,–,–,–,–,Toxic
Oc1ccc2nc(N3CCOCC3)sc2c1,7410 nM,8080 nM,–,–,–
